Experiments:
[1] = biological target: T1, HIV-1 Reverse Transcriptase (Human immunodeficiency virus type 1 group M subtype B, UniProt P03366); assay: Single incorporation into P1T1 by HIV-1 Reverse Transcriptase (Examples 6, 7, 9); type: biochemical; conditions: 1 mM
T1 construct: performed with the enzyme HIV-1 RT (Ambion, 10 U/μL stock solution); purchased Ambion
Protocol: HIV-1 Reverse Transcriptase serves, in the HIV-1 viral replication process, as a catalyst and uses deoxynucleotides as substrates. This polymerase is error-prone and thus has a high mutation rate. Here, we evaluated the capacity to incorporate a deoxyadenosine nucleoside into the primer-template complex P1T1 using HIV-1 RT, and some of the above described illustrative compounds of the invention, carrying different leaving groups, as substrates. The initial screening was carried out using a template with an overhang of one thymidine nucleotide followed by three non-pyrimidine bases (Table 1). Incorporation efficiency was analysed by the polyacrylamide gel-based single nucleotide incorporation assay.
End-labeled primer was annealed to its template by combining primer and template in a molar ratio of 1:2 and heating the mixture to 70° C. for 10 minutes followed by slow cooling to room temperature over a period of 1.5 hour. For the incorporation of 1, 2, 3, 4, 5 and 6, a series of 20 μL-batch reactions was performed with the enzyme HIV-1 RT (Ambion, 10 U/μL stock solution, specific activity 8.095 U/mg, concentration 1.2 mg/mL). The final mixture contained 125 nM primer template complex, RT buffer (250 mM Tris.HCl, 250 mM KCl, 50 mM MgCl2, 2.5 mM spermidine, 50 mM dithiothreitol (DTT); pH 8.3), 0.025 U/μL HIV-1 RT, and different concentrations of phosphoramidate or phosphodiester building blocks (1 mM, 500 μM, 200 μM and 100 μM respectively). In the case of the aromatic phosphate-modified nucleosides 23 and 24, the range of concentrations was limited to 1 mM. In the control reaction with the natural nucleotide, a 10 μM dATP concentration was used. The mixture was incubated at 37° C. and 2.5 μL aliquots were quenched after 5, 10, 20, 30, 60 and 120 minutes.

[2] = biological target: T2, HIV reverse transcriptase (Human immunodeficiency virus type 1 group M subtype B, UniProt P03366); assay: Steady-state kinetic assay of Asp-dNMP incorporation by HIV RT (Example 4); type: biochemical, HIV-1; conditions: 37° C.; P1-T2, P1-T4 or P2T4
T2 construct: performed for the enzyme HIV reverse transcriptase (GE Healthcare, 30 U/4 stock solution); purchased GE Healthcare
Protocol: To determine the kinetic parameters of the incorporation of Asp-dGMP (9), Asp-dTMP (10), Asp-dCMP (11) or dGTP, dTTP, dCTP, a steady-state kinetic assay was carried out. The reaction mixture was started by adding HIV reverse transcriptase to P1-T2, P1-T4 or P2T4 complex, buffer and Asp-dGMP, Asp-dTMP, Asp-dCMP or dGTP, dTTP, dCTP. The final mixture (20 μL) contained 0.015 or 0.0075 U/μL HIV reverse transcriptase, buffer, 125 nM primer-template complex and various concentrations of Asp-dNMP or dNTP. A concentration range of 0.01-1 mM was used for Asp-dNPM and a concentration range of 0.1-10 μM was used for dNTP. Reactions were incubated at 37° C. Reaction times were between 1 and 120 minutes. The kinetic constants Vmax and KM were determined from a Michaëlis-Menten plot, using GraphPad Prism version 3.02.
(§1) All polymerase reactions (3 μL) were quenched by the addition of 10 μL of loading buffer (90% formamide, 0.05% bromophenol blue, 0.05% xylene cyanol and 50 mM EDTA). Samples were heated at 70° C. for 5 minutes prior to analysis by electrophoresis for 2-3 hours at 2000 V on a 0.4 mm 20% denaturing gel in the presence of a 100 mM Tris-borate, 2.5 mM EDTA buffer, pH 8.3. Products were visualized by phosphor imaging. The amount of radioactivity in the bands corresponding to the products of enzymatic reactions was determined by using the Optiquant image analysis software (Perkin Elmer).

[3] = biological target: T2, HIV reverse transcriptase; assay: Gel-based single-nucleotide-incorporation and control assays with HIV RT (Example 4); type: biochemical, HIV-1; conditions: for conversion to a n+1 strand: 60 min, 500 μM nucleotide concentration, P1T2 (9), P1T4 (10), P2T4 (11); for control experiment with a mismatch sequence: A against A P1T4 (12), G against A P1T4 (9), T against C P1T2 (10), C against T P1T1 (11); for incorporation with blunt ended duplex: primer P1, template A
Protocol: End-labeled primers were annealed to their template by combining primer and templates in a molar ratio of 1:2 and heating the mixture to 70° C. for 10 minutes, followed by slow cooling to room temperature over a period of 2.5 hours. For the incorporation of L-Asp-dGMP (9), L-Asp-dTMP (10), L-Asp-dCMP (11), and N-Me-Asp-dAMP (12) (see FIG. 13), the primer P1 was annealed to templates T1, T2, T4 or A and P2 was annealed to T4. A series of 20 μL reactions was performed for the enzyme HIV reverse transcriptase (GE Healthcare, 30 U/4 stock solution). The final mixture contained 125 nM primer-template complex, RT buffer (250 mM TrisHCl, 250 mM KCl, 50 mM MgCl2, 2.5 mM spermidine, 50 mM DTT, pH 8.3), 0.03 U/μL HIV RT and different amino acid phosphoramidates building blocks concentrations. In the control reaction with the natural nucleotide, 10 μM or 50 μM dGTP, dTTP, dATP or dCTP were used. The mixture was incubated at 37° C. […] and aliquots were quenched after 5, 10, 20, 30, 60 and 120 minutes respectively.
as §1

HIV RT = biological target: T3, HIV RT (Human immunodeficiency virus type 1 group M subtype B, UniProt P03366); assay: Steady state kinetics of single nucleotide incorporation by HIV RT (P1/T1); type: biochemical, HIV-1; conditions: P1/T1, 37° C.
T3 construct: HIV RT polymerase was purchased from GE Healthcare; purchased GE Healthcare (Amersham Bioscience)
Protocol: The steady steate kinetics of a single nucleotide incorporation of an amino acid phosphoramidate (AA-dAMP) and of a natural nucleoside triphosphate (dATP) was determined by the gel-based polymerase assay. In all the experiments, the template T1 and the primer P1 were used (Table 1). The primer and template in 1:2 molar ratio were hybridized in a buffer containing 20 mM TRIS.HCl, 10 mM KCl, 2 mM MgSO4, 0.1% Triton X-100, pH 8.8 and used in an amount to provide 125 nM concentration of the primer in each 12 μL reaction. The range of concentrations for amino acid phosphoramidates was optimized according to a Km value for the incorporation of an individual nucleotide. In the case of HIV RT (Amersham Bioscience (GE Healthcare), 30 U/μL), reaction mixtures containing the enzyme in concentration to attain 5-20% conversion and appropriate substrate concentration (nucleoside phosphoramidate or natural dNTP) were incubated at 37° C. and run for 8-10 different time intervals. Kinetic analysis of single nucleotide incorporation by Therminator DNA polymerase (NEB, 2 U/μL) was performed similarly except the incubations and polymerase reactions, which were carried out at 70° C. To prevent solvent condensation/evaporation, the reaction mixtures were topped with mineral oil. The reactions were quenched by addition of the buffer containing 80% formamide, 2 mM EDTA, 1×TBE buffer. The analysis of polymerase reactions was performed by polyacrylamide gel electrophoresis (20% (19:1 mono:bis), 7M urea, 30 cm×40 cm×0.4 mm). The relative band intensities were measured using OptiQuant software. The rates of incorporation (V) were calculated based on the percentage of the extension production (n+1 band). The kinetic parameters (Vmax and Km) were determined by plotting V (pmol/min·U) versus substrate concentration and fitting the data point to a rectangular hyperbola using GraphPad Prism software.

[4] = biological target: T4, HIV reverse transcriptase (HIV RT) (Human immunodeficiency virus type 1 group M subtype B, UniProt P03366); assay: Single nucleotide incorporation by HIV RT, gel-based, P1/T1 (Examples 2-3); type: biochemical, HIV-1; conditions: single nucleotide incorporation, FIG. 4
T4 construct: HIV RT polymerase was purchased from GE Healthcare; purchased GE Healthcare (Amersham Bioscience)
Protocol: A typical single nucleotide incorporation and primer extension assays using HIV RT polymerase was carried out similar to one described in the literature. HIV RT polymerase was purchased from GE Healthcare and was supplied as either 12 or 30 U/μL stock solution. The final concentration of HIV RT in a reaction mixture was 0.03-0.003 U/μL. A primer/template duplex mixture was prepared by combining appropriate amounts of a 5′-^33P-labeled primer (P1) and a template in 1:2 molar ratio to provide a 4× solution with 0.5 μM primer concentration. The polymerase reactions were carried out in a 5×RT buffer containing 250 mM TRIS.HCL, 250 mM KCl, 50 mM MgCl2, 2.5 mM spermidine, 50 mM DTT, pH 8.3. For the single nucleotide incorporation assay, a P1/T1 primer-template pair was used whereas the primer extension study was performed with P1/T3 and P1/T5 primer-template pairs.
Briefly, a mixture containing 5 μL of the 4× primer/DNA duplex solution and 5 μL of 4× polymerase solution was pre-incubated at 37° C. for 2 minutes to ensure formation a DNA polymerase/DNA duplex complex. Simultaneously, 2× solutions of dNTP to provide final concentrations of 100 μM, 200 μM, 500 μM and 1 mM were also pre-incubated at 37° C. for 2 minutes as well. The polymerase reaction in a total volume of 20 μL was initiated by addition of 10 μL of the 2× dNTP solution to the DNA polymerase/DNA duplex mixture. The reactions were run at 37° C. and aliquots (2.5 μL) were removed at specified time points and mixed with 10 μL of a quenching buffer containing 80% formamide, 2 mM EDTA, 1×TBE. Quenched reactions were analyzed by loading 2 μL of a reaction sample onto a 20% denaturing polyacrylamide:gel (19:1 acrylamide:bisacrylamide, 7M urea, 0.4 mm×30 cm×40 cm) made in 1×TBE buffer (90 mM Tris-borate, 2 mM EDTA, pH 8.3). The gel was pre-equilibrated for 2 hours before loading and the reactions were run along with a tracking dye marker containing bromophenol blue (BB) and xylene cyanol (XC) until the BB dye had run ⅔ of the total gel length. For visualization, gels were scanned using a Cyclone Phosphoroimager.

[5] = biological target: T2, HIV reverse transcriptase; assay: Gel-based single-nucleotide-incorporation and control assays with HIV RT (Example 4); type: biochemical, HIV-1; conditions: P1/T2, compound 9 alone

Nc1ncnc2c1ncn2[C@H]1C[C@H](O)[C@@H](COP(=O)(O)Nc2cc(C(=O)O)cc(C(=O)O)c2)O1 [Compound 23, 2′-deoxyadenosine-5′(5-aminoisophthalic acid) phosphoramidate]
recognition as substrate [1]: less well recognized as substrate

Nc1nc2c(ncn2[C@H]2C[C@H](O)[C@@H](COP(=O)(O)OP(=O)(O)OP(=O)(O)O)O2)c(=O)[nH]1 [dGTP, reference compound]
Km [2]: 0.54 ± 1.55 µM
Vmax [2]: 28.81 ± 1.55 pmolmin^−1U

Nc1ccn([C@H]2C[C@H](O)[C@@H](COP(=O)(O)N[C@@H](CC(=O)O)C(=O)O)O2)c(=O)n1 [Compound 11, 2′-Deoxycytidine-5′-aspartyl phosphoramidate]
conversion to a n+1 strand [3]: 82%
control experiment with a mismatch sequence [3]: primer elongation was not observed
incorporation with blunt ended duplex [3]: none of these compounds incorporated at all
Km [2]: 131 ± 19.8 µM
Vmax [2]: 0.59 ± 0.04 pmolmin^−1U

CN(C(CC(=O)O)C(=O)O)P(=O)(O)OC[C@H]1O[C@@H](n2cnc3c(N)ncnc32)C[C@@H]1O (stereo partly drawn) [Compound 12, 2′-Deoxyadenosine-5′-N-methylaspartyl phosphoramidate]
control experiment with a mismatch sequence [3]: misincorporated against adenine
base-pairing selectivity of incorporation ([3]; P1/T1): without base-pairing selectivity
substrate quality for HIV-RT ([3]; P1/T1): good substrate

Nc1ccn([C@H]2C[C@H](O)[C@@H](COP(=O)(O)OP(=O)(O)OP(=O)(O)O)O2)c(=O)n1 [dCTP, reference compound]
Km [2]: 3.74 ± 0.95 µM
Vmax [2]: 5.62 ± 0.80 pmolmin^−1U

Cc1cn([C@H]2C[C@H](O)[C@@H](COP(=O)(O)N[C@@H](CC(=O)O)C(=O)O)O2)c(=O)[nH]c1=O [Compound 10, 2′-Deoxythymidine-5′-aspartyl phosphoramidate]
conversion to a n+1 strand [3]: 95%
control experiment with a mismatch sequence [3]: primer elongation was not observed
incorporation with blunt ended duplex [3]: none of these compounds incorporated at all
Km [2]: 288 ± 61.7 µM
Vmax [2]: 2.33 ± 0.22 pmolmin^−1U

Cc1cn([C@H]2C[C@H](O)[C@@H](COP(=O)(O)OP(=O)(O)OP(=O)(O)O)O2)c(=O)[nH]c1=O [dTTP, reference compound]
Km [2]: 0.53 ± 0.07 µM
Vmax [2]: 30.82 ± 1.44 pmolmin^−1U

Nc1ncnc2c1ncn2[C@H]1C[C@H](O)[C@@H](COP(=O)(O)OP(=O)(O)OP(=O)(O)O)O1 [dATP, reference compound]
Km (HIV RT): 460 ± 150 nM
Vmax (HIV RT): 8.39 ± 0.82 pmol/min · U

CC(NP(=O)(O)OC[C@H]1O[C@@H](n2cnc3c(N)ncnc32)C[C@@H]1O)C(=O)O (stereo partly drawn) [Compound 4, 2′-deoxy-adenosine-5′-alanyl-phosphoramidate]
fold reduction in primer extension [4]: 7 fold

Nc1nc2c(ncn2[C@H]2C[C@H](O)[C@@H](COP(=O)(O)N[C@@H](CC(=O)O)C(=O)O)O2)c(=O)[nH]1 [Compound 9, 2′-Deoxyguanosine-5′-aspartyl phosphoramidate]
conversion to a n+1 strand [3]: 92%
control experiment with a mismatch sequence [3]: primer elongation was not observed
incorporation with blunt ended duplex [3]: none of these compounds incorporated at all
Km [2]: 169 ± 27.9 µM
Vmax [2]: 2.143 ± 0.13 pmolmin^−1U
n+1 conversion (incorporation) ([5]; 4 hours (same as at 2 hours)): 95%
misincorporation ([5]; four hours): no misincorporation was observed

Reference: patent publication US8242087B2, “Phosphate modified nucleosides useful as substrates for polymerases and as antiviral agents” (priority 2007, dated 2012)
